Measured values from patent US20110104145A1, “METHOD FOR THE TREATMENT OR PROPHYLAXIS OF CHRONIC INFLAMMATORY DISEASES” (priority 2008, published 2011).

What was measured:
[1] = system: binding between IgA and CD89; experiment: Blocking assay: two-dimensional polymorphonuclear cell migration to IgA-coated beads; type: cell-based, human; settings: for blocking of the IgA-CD89 interaction / reduction of polymorphonuclear cell migration to IgA-beads (in words): polymorphonuclear cells; for blocking of the interaction between IgA and CD89: PKH67-polymorphonuclear cells, blocker 1-100 μg/ml, 20' at 37° C., assay of example 4
Protocol: FIG. 6. IgA-induced migration can be reduced by interfering with IgA-CD89 interactions. Percentage inhibition of polymorphonuclear cell migration in the presence of 3 different anti-FcαRI mAb (white bars), 6 peptides that mimic either the IgA binding site on CD89 or the CD89 binding site on IgA (black bars) or a soluble variant of CD89 or FcαRI (sFcalphaRI, grey bar).
PKH67-polymorphonuclear cells (2.5×10^5 cells/well) were seeded in 96 wells flat bottom plates (Greiner), after which immunoglobulin-coated beads (10 μl/well) were added. For binding assays, cells were kept at 4° C. For migration assays, cells were incubated for 20′ 37° C., after which cell suspensions were collected and beads were washed 2 times with PBS to remove unbound PKH67-polymorphonuclear cells. Beads were incubated with a buffer containing 2.0 g/l hexadecyltrimethyl ammonium bromide, 1.0 g/l tween 20, 2.0 g/l BSA and 7.44 g/l EDTA in PBS to lyse bound PKH67-polymorphonuclear cells. Fluorescence was measured using 485 excitation and 520 emission filters (Fluostar Galaxy, BMG Labtechnologies, Offenburg, Germany).
The blocking potential of anti-FcαRI antibodies and/or sFcαRI and/or peptides that mimic either the IgA binding site on CD89 or the CD89 binding site on IgA was investigated using a 2-dimensional polymorphonuclear cells migration assay as detailed in example 4. For that purpose, PKH67-polymorphonuclear cells were incubated with different concentrations (ranging from 1-100 μg/ml in RPMI) of either anti-FcαRI blocking antibodies or with peptides mimicking the IgA binding site on CD89 for 20 minutes at 37° C. IgA-coated beads were incubated with different concentrations (ranging from 1-100 μg/ml in RPMI) of peptides mimicking the CD89 binding site on IgA for 20 minutes at 37° C. PKH67-polymorphonuclear cells (2.5×10^5 cells/well) that had not been incubated (as control) or PKH67-polymorphonuclear cells that had been incubated with blocking antibodies or peptides were seeded in 96 wells flat bottom plates (Greiner). Either non-incubated IgA-coated beads, or IgA-coated beads that had been incubated with peptides were added (10 μl/well). Cells were then incubated for 20′ at 37° C., after which cell suspensions were collected and beads were washed 2 times with PBS to remove unbound PKH67-polymorphonuclear cells. Beads were incubated with a buffer containing 2.0 g/l hexadecyltrimethyl ammonium bromide, 1.0 g/l Tween 20, 2.0 g/l BSA and 7.44 g/l EDTA in PBS to lyse bound PKH67-polymorphonuclear cells. Fluorescence was measured using 485 excitation and 520 emission filters (Fluostar Galaxy, BMG Labtechnologies, Offenburg, Germany) to determine the number of polymorphonuclear cells that had bound to IgA-coated beads. Percentage blocking was determined using the following equation: 100−(number of bound cells in blocking situation/number of bound cells without blocking×100) %.

polymorphonuclear cells [2] = experiment: Human skin migration assay (ex vivo skin graft, IgA-coated beads); type: cell-based; settings: ex vivo mammary skin graft, beads injected intracutaneously, overnight at 37° C.
Protocol: A full thickness mammary skin graft (epidermis and dermis) was placed in an ex-vivo tissue incubation chamber (method adapted from Oosterling, S J et al. Ann Surg. 2008; 247(1):85-94). 5 μl of IgA- or BSA-coated beads (17.5 μg/μl) were injected intracutaneously via the dermis, followed by addition of PKH-67 labeled polymorphonuclear cells (4×10^6 cells/well) to the wells. Due to the short half-life of polymorphonuclear cells after isolation, cells were supplemented with IFN-γ (300 units/ml; Boehringer Ingelheim, Alkmaar, The Netherlands). Skin was incubated overnight at 37° C. Biopsies of the injected skin were taken and snap frozen. Sections of biopsies were analysed with bright field and fluorescence microscopy.

polymorphonuclear cells [3] = experiment: Chemotaxis assay with supernatants of IgA-bead migration experiments; type: cell-based, human; settings: mAb 100 μg/ml; U75302 10 μM in ethanol; 40 minutes at 37° C.
Protocol: B) Supernatant was collected after addition of IgA-beads, and migration of freshly isolated polymorphonuclear cells to collected supernatant was measured in the presence of anti-BLTR1 (LTB4 receptor), anti-IL-8 or an isotype mAb control. Additionally, either an LTB4 receptor antagonist (U75302 in ethanol) or ethanol alone was added. Migration to supernatant in the absence of inhibitors was set at 100%.
Chemotaxis assays were essentially performed as described (Frevert et al., J. Immunol. Methods 213, 41 (1998)), modified for use in a 48 well Neuroprobe blind well chemotaxis chamber (Gaithersburg, Md.). Briefly, bottom wells were filled with supernatants of migration experiments (25 μl), and covered with a 3 μm pore polycarbonate filter (Neuroprobe). Purified LTB4 (Sigma) or IL-8 (Peprotech, Rocky Hill, N.J.) were used as positive controls. Top wells were filled with 50 μl calcein AM-labeled polymorphonuclear cells (1×10^6/ml). After a 40 minutes incubation period at 37° C., cells that had migrated towards the lower compartments were quantified with a fluorimeter (485 excitation/520 emission filters). To inhibit IL-8 mediated migration, experiments were conducted in the presence of 100 μg/ml blocking anti-IL-8 mAb (BD Biosciences). LTB4-mediated migration was investigated by blocking LTB4 receptors with 100 μg/ml anti-BLTR1 mAb (BD Biosciences). […]

Molecule	blocking of the IgA-CD89 interaction / reduction of polymorphonuclear cell migration to IgA-beads (in words) [1]	other results
GRYQCQYRIGHYRFRYSD [Sym-060]	performed somewhat less but was still found useful	
EDLLLGSEA [IgA CH2]		blocking of the interaction between IgA and CD89 [1]: up to 23%
sFcαRI: soluble form of FcαRI: extracellular part (ecto domain) of FcαRI expressed in 293T cells	efficiently block the interaction	migration of polymorphonuclear cells to IgA-coated beads in human skin (polymorphonuclear cells [2]): completely prevent migration
REIGRRLKFWNETDP [Fc alpha 113]		blocking of the interaction between IgA and CD89 [1]: up to 19%
SSMVGHEALPLAFTQKT [PEO-45#7,8, 17-mer stretch (amino acids 431-447) selected from the Fc region of IgA]		migration of polymorphonuclear cells to IgA-coated beads in human skin (polymorphonuclear cells [2]): completely prevent migration
GRYQAQYRIGHYRFRYSD [PEO-50#8,9, EF loop peptide (CD89 75-92)]		migration of polymorphonuclear cells to IgA-coated beads in human skin (polymorphonuclear cells [2]): completely prevent migration
SCMVGHEALPLAFTQCT [PEO-46#7,8]	provided good results	
YRIGHYRFR	performed well	
LKFWNETDP	performed well	
CCCCC/C=C\C[C@@H](O)/C=C/c1cccc(C[C@@H](O)CCCCO)n1 [receptor antagonist, U75302]		chemotactic activity of supernatant of IgA-bead migration experiments (polymorphonuclear cells [3]): reduced
AQAIREAYL	performed well	
